Here are results for 20 compounds from ChEMBL document CHEMBL4417631, “Oral peptide inhibitors of interleukin-23 receptor and their use to treat inflammatory bowel diseases” (2017).

Where a SMILES comes first, the peptide text is derived from it. [ ]: non-standard residue; d: D form. hLeu = CC(C)CC[C@H](N)C(=O)O

The target of this assay is T1, Interleukin-23 receptor (Homo sapiens, UniProt Q5VWK5).
T1 sequence (Q5VWK5 whole entry): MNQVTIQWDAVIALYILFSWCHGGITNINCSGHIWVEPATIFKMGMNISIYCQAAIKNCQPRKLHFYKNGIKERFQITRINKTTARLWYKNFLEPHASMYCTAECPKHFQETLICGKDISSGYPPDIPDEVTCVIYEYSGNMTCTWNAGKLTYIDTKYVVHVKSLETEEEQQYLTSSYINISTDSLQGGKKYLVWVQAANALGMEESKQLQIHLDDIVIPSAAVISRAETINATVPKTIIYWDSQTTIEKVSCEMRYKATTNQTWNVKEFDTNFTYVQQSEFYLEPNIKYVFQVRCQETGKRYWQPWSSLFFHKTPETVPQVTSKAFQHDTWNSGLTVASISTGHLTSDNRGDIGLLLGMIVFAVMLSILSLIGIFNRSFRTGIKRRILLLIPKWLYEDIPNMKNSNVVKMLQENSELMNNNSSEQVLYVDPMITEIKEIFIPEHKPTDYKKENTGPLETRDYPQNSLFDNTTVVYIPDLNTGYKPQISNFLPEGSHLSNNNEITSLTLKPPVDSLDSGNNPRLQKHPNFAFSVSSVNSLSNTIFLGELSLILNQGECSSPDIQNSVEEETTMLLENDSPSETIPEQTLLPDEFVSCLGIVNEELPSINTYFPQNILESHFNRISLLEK
Briefly: Inhibition of interleukin-23 binding to human interleukin-23 receptor incubated for 2 hrs by competitive binding ELISA. In general terms: An ELISA detects its analyte on a solid surface through an enzyme-linked reagent.

On to `CC(=O)N[C@@H](CS)C(=O)N[C@@H](C)C(=O)N[C@H](C(=O)N[C@@H](Cc1c[nH]c2ccccc12)C(=O)N[C@H](C(=O)N[C@@H](CS)C(=O)N[C@@H](Cc1ccc(O)cc1)C(=O)N[C@@H](Cc1c[nH]c2ccccc12)C(=O)N[C@@H](Cc1cnc[nH]1)C(=O)N[C@H](C(=O)N[C@@H](Cc1ccccc1)C(=O)NCC(N)=O)[C@@H](C)O)C(C)C)[C@@H](C)O`, for which the IC50 (as a rule, the concentration that inhibits the measured activity by half) was above 1000 nM. The compound `CC(=O)NCCCC[C@H](NC(=O)[C@](C)(CCCCN)NC(=O)[C@H](Cc1ccc2ccccc2c1)NC(=O)[C@H](Cc1ccc(-c2ccccc2)cc1)NC(=O)[C@@H](NC(=O)[C@H](CCC(N)=O)NC(=O)[C@H](Cc1c[nH]c2ccccc12)NC(=O)[C@@H](NC(=O)[C@H](CCC(N)=O)NC(=O)[C@@H](NC(C)=O)C(C)(C)S)[C@@H](C)O)C(C)(C)S)C(=O)N[C@@H](CC(N)=O)C(=O)NCC(N)=O` showed an IC50 above 10000 nM. The compound `CC(=O)N[C@@H](CS)C(=O)N[C@@H](C)C(=O)N[C@@H](CC(=O)O)C(=O)N[C@@H](Cc1c[nH]c2ccccc12)C(=O)N[C@H](C(=O)N[C@@H](CS)C(=O)N[C@@H](Cc1ccc(O)cc1)C(=O)N[C@@H](Cc1cccc2ccccc12)C(=O)N[C@@H](Cc1cnc[nH]1)C(=O)NCCOCCC(N)=O)C(C)C` returned an IC50 above 1000 nM.

`CC(=O)N[C@@H](CS)C(=O)N[C@@H](CCC(N)=O)C(=O)N[C@H](C(=O)NCC(=O)N[C@@H](CCC(N)=O)C(=O)N[C@@H](CS)C(=O)N[C@@H](Cc1ccc(O)cc1)C(=O)N[C@@H](Cc1c[nH]c2ccccc12)C(=O)N[C@@H](CCC(C)C)C(=O)N[C@@H](CCC(=O)O)C(=O)N[C@@H](CC(N)=O)C(=O)NCC(N)=O)[C@@H](C)O` (Ac-CQTGQCYW[hLeu]ENG-NH2) showed an IC50 above 10000 nM. To `CC(=O)N[C@H](CCCCN)C(=O)N[C@@H](CS)C(=O)N[C@@H](C)C(=O)N[C@@H](CC(=O)O)C(=O)N[C@@H](Cc1c[nH]c2ccccc12)C(=O)N[C@H](C(=O)N[C@@H](CS)C(=O)N[C@@H](Cc1ccc(O)cc1)C(=O)N[C@@H](Cc1c[nH]c2ccccc12)C(=O)N[C@@H](Cc1cnc[nH]1)C(=O)N[C@H](C(=O)N[C@@H](Cc1ccccc1)C(=O)NCC(=O)O)[C@@H](C)O)C(C)C` belongs above 1000 nM; to `CC(=O)N[C@@H](CS)C(=O)N[C@@H](CCCNC(=N)N)C(=O)N[C@@H](CC(=O)O)C(=O)N[C@@H](Cc1c[nH]c2ccccc12)C(=O)N[C@@H](CCC(N)=O)C(=O)N[C@@H](CS)C(=O)N[C@@H](Cc1ccc(O)cc1)C(=O)N[C@@H](Cc1c[nH]c2ccccc12)C(=O)N[C@H](CCCNC(=N)N)C(=O)N[C@@H](CCCCN)C(=O)N[C@@H](Cc1ccccc1)C(=O)NCC(=O)NCCOCCC(=O)N[C@H](CCCCN)C(N)=O`, above 1000 nM; to `CSCC[C@H](NC(=O)[C@H](Cc1c[nH]c2ccccc12)NC(=O)[C@H](CC(=O)O)NC(=O)[C@H](C)NC(=O)[C@@H](N)CS)C(=O)N[C@@H](CS)C(=O)N[C@@H](Cc1ccc(O)cc1)C(=O)N[C@@H](Cc1c[nH]c2ccccc12)C(=O)N[C@@H](Cc1cnc[nH]1)C(=O)N[C@@H](CCC(=O)O)C(=O)N[C@@H](Cc1ccc(O)cc1)C(=O)NCC(N)=O` (H-CADWMCYWHEYG-NH2), 500 to 1000 nM. In the case of `CC(=O)N[C@H](C(=O)N[C@@H](CCC(N)=O)C(=O)N[C@H](C(=O)N[C@@H](Cc1c[nH]c2ccccc12)C(=O)N[C@@H](CCC(N)=O)C(=O)N[C@H](C(=O)N[C@@H](Cc1cc(F)cc(F)c1)C(=O)N[C@@H](Cc1ccc2ccccc2c1)C(=O)N[C@@](C)(CCCN)C(=O)N[C@@H](CCC(N)=O)C(=O)N[C@@H](CC(N)=O)C(=O)NCC(N)=O)C(C)(C)S)[C@@H](C)O)C(C)(C)S`, the IC50 lay within 100 to 1000 nM.

As to `CC(=O)N[C@@H](CS)C(=O)N[C@@H](CCC(N)=O)C(=O)N[C@H](C(=O)N[C@@H](Cc1c[nH]c2ccccc12)C(=O)N[C@@H](CCC(N)=O)C(=O)N[C@@H](CS)C(=O)N[C@@](C)(Cc1ccccc1)C(=O)N[C@@H](Cc1c[nH]c2ccccc12)C(=O)N[C@@H](CCC(C)C)C(=O)N[C@@H](CCC(=O)O)C(=O)N[C@@H](CC(N)=O)C(=O)NCC(N)=O)[C@@H](C)O`, the IC50 was determined as 30000 nM. This lies in the double-digit micromolar range. Compound `CC(=O)NC(=O)[C@@H](CCCCNC(=O)COCC(=O)NCCCC[C@@H](NCCC(=O)N[C@@H](CS)C(=O)N[C@@H](C)C(=O)N[C@@H](CC(=O)O)C(=O)N[C@@H](Cc1c[nH]c2ccccc12)C(=O)N[C@H](C(=O)N[C@@H](CS)C(=O)N[C@@H](Cc1ccc(O)cc1)C(=O)N[C@@H](Cc1c[nH]c2ccccc12)C(=O)N[C@@H](Cc1cnc[nH]1)C(=O)N[C@H](C(=O)N[C@@H](Cc1ccccc1)C(=O)NCC(=O)O)[C@@H](C)O)C(C)C)C(=O)NC(C)=O)NCCC(=O)N[C@@H](CS)C(=O)N[C@@H](C)C(=O)N[C@@H](CC(=O)O)C(=O)N[C@@H](Cc1c[nH]c2ccccc12)C(=O)N[C@H](C(=O)N[C@@H](CS)C(=O)N[C@@H](Cc1ccc(O)cc1)C(=O)N[C@@H](Cc1c[nH]c2ccccc12)C(=O)N[C@@H](Cc1cnc[nH]1)C(=O)N[C@H](C(=O)N[C@@H](Cc1ccccc1)C(=O)NCC(=O)O)[C@@H](C)O)C(C)C` came in with an IC50 above 10000 nM. As to `CC(=O)N[C@@H](CS)C(=O)N[C@@H](C)C(=O)N[C@H](C(=O)N[C@@H](Cc1c[nH]c2ccccc12)C(=O)N[C@@H](CCC(N)=O)C(=O)N[C@@H](CS)C(=O)N[C@@H](Cc1ccc(O)cc1)C(=O)N[C@@H](Cc1c[nH]c2ccccc12)C(=O)N[C@@H](Cc1cnc[nH]1)C(=O)N[C@@H](CCC(=O)O)C(=O)N[C@@H](Cc1ccc(O)cc1)C(=O)NCC(N)=O)[C@@H](C)O` (Ac-CATWQCYWHEYG-NH2), the IC50 was below 500 nM. Take `CC(=O)N[C@@H](CS)C(=O)N[C@H](C(=O)N[C@H](C(=O)N[C@@H](Cc1c[nH]c2ccccc12)C(=O)N[C@@H](CCC(=O)O)C(=O)N[C@@H](CS)C(=O)N[C@@H](Cc1ccc(O)cc1)C(=O)N[C@@H](Cc1c[nH]c2ccccc12)C(=O)N[C@@H](Cc1cnc[nH]1)C(=O)N[C@@H](CCC(N)=O)C(=O)N[C@@H](Cc1ccccc1)C(=O)NCC(N)=O)[C@@H](C)O)[C@@H](C)O` (Ac-CTTWECYWHQFG-NH2): the IC50 was below 500 nM. `CC(C)[C@H](NC(=O)[C@H](Cc1c[nH]c2ccccc12)NC(=O)[C@H](CC(=O)O)NC(=O)[C@H](C)NC(=O)[C@@H](N)CS)C(=O)N[C@@H](CS)C(=O)N[C@@H](Cc1ccc(O)cc1)C(=O)N[C@@H](C)C(=O)N[C@@H](Cc1cnc[nH]1)C(=O)N[C@H](C(=O)N[C@@H](Cc1ccccc1)C(=O)NCC(N)=O)[C@@H](C)O` returned a half-inhibitory concentration (IC50) above 1000 nM. To `CC(=O)NC1C/C=C\CCCC(C(=O)N[C@@H](Cc2ccc(O)cc2)C(=O)N[C@@H](Cc2c[nH]c3ccccc23)C(=O)N[C@@H](CCCNC(=N)N)C(=O)N[C@@H](CCCCN)C(=O)N[C@@H](Cc2ccccc2)C(=O)NCC(=O)NCCOCC(=O)N[C@H](CCCCN)C(N)=O)NC(=O)[C@H](CCC(N)=O)NC(=O)[C@H](Cc2c[nH]c3ccccc23)NC(=O)[C@H]([C@@H](C)O)NC(=O)[C@H](CCCNC(=N)N)NC1=O` (stereo not given in full) belongs 1000 to 10000 nM; to `CCCCCCCCCCCCCCCC(=O)NCCCC[C@H](NC(=O)[C@H](CCCN)NC(=O)[C@H](Cc1c[nH]c2ccccc12)NC(=O)[C@H](Cc1ccc(O)cc1)NC(=O)[C@H](CS)NC(=O)[C@H](CCC(N)=O)NC(=O)[C@H](Cc1c[nH]c2ccccc12)NC(=O)[C@@H](NC(=O)[C@H](CCC(N)=O)NC(=O)[C@H](CS)NC(C)=O)[C@@H](C)O)C(=O)N[C@@H](CC(N)=O)C(=O)NCC(N)=O`, above 6000 nM. To `CC(=O)N[C@@H](CS)C(=O)N[C@@H](C)C(=O)N[C@@H](CC(=O)O)C(=O)N[C@@H](Cc1c[nH]c2ccccc12)C(=O)N[C@H](C(=O)N[C@@H](CS)C(=O)N[C@@H](Cc1ccc(O)cc1)C(=O)N[C@@H](Cc1c[nH]c2ccccc12)C(=O)N[C@@H](Cc1cnc[nH]1)C(=O)N[C@H](C(=O)N[C@@H](Cc1ccc(O)cc1)C(=O)NCC(N)=O)[C@@H](C)O)C(C)C` belongs below 500 nM. Regarding `CC(=O)N[C@H]1CCSC[C@@H](C(=O)N[C@@H](Cc2ccc(OCCN)cc2)C(=O)N[C@@H](Cc2ccc3ccccc3c2)C(=O)N[C@@](C)(CCCCN)C(=O)N[C@@H](CCC(=O)O)C(=O)N[C@@H](CC(N)=O)C(=O)NCC(N)=O)NC(=O)[C@H](CCC(N)=O)NC(=O)[C@H](c2ccc(OCCN)cc2)NC(=O)[C@H]([C@@H](C)O)NC(=O)[C@H](CCC(N)=O)NC1=O`, the IC50 was above 3000 nM.

`CC(=O)N[C@@H](CS)C(=O)N[C@@H](C)C(=O)N[C@@H](CC(=O)O)C(=O)N[C@@H](Cc1c[nH]c2ccccc12)C(=O)N[C@H](C(=O)N[C@@H](CS)C(=O)N[C@@H](Cc1ccc(O)cc1)C(=O)N[C@H](C(=O)N[C@@H](CCCN)C(=O)N[C@@H](CN)C(=O)N[C@@H](Cc1ccccc1)C(=O)NCC(=O)NCCOCC(=O)N[C@H](CCCCN)C(N)=O)C1CCC(c2ccccc2)CC1)C(C)C` (stereo not given in full) returned an IC50 above 3000 nM. In the case of `CC(C)[C@H](NC(=O)[C@H](Cc1c[nH]c2ccccc12)NC(=O)[C@H](CC(=O)O)NC(=O)[C@H](C)NC(=O)[C@@H](N)CS)C(=O)N[C@@H](CS)C(=O)N[C@@H](Cc1ccc(O)cc1)C(=O)N[C@@H](Cc1cccc2ccccc12)C(=O)N[C@@H](Cc1cnc[nH]1)C(=O)N(C)CC(=O)N[C@@H](Cc1ccccc1)C(=O)O`, the IC50 is above 1000 nM.

With `CC(C)[C@H](NC(=O)[C@H](Cc1c[nH]c2ccccc12)NC(=O)[C@H](CC(=O)O)NC(=O)[C@H](C)NC(=O)[C@@H](N)CS)C(=O)N[C@@H](CS)C(=O)N[C@@H](Cc1ccc(O)cc1)C(=O)N[C@@H](Cc1c[nH]c2ccccc12)C(=O)N[C@@H](Cc1cnc[nH]1)C(=O)N[C@H](C(N)=O)[C@@H](C)O`, the IC50 is above 1000 nM.
